Experimental data reported in the NIST ThermoML archive (doi:10.1016/j.tca.2009.07.002).

Experiment: xn = mol fraction of the nth substance listed
Conditions: 101 kPa, Liquid, Vibrating tube method

NC1CCCCC1 [cyclohexylamine] + CCCCCCC
mass density [kg/m3]
Conditions	288.15 K	293.15 K	298.15 K	303.15 K	308.15 K	313.15 K	318.15 K	323.15 K
x1 = 0.0501	694.788	690.573	686.334	682.072	677.784	673.467	669.12	664.739
x1 = 0.1002	701.818	697.601	693.36	689.097	684.805	680.49	676.146	671.776
x1 = 0.1501	709.079	704.855	700.609	696.341	692.046	687.73	683.386	679.015
x1 = 0.2305	721.227	716.988	712.729	708.452	704.15	699.827	695.479	691.106
x1 = 0.3004	732.296	728.038	723.765	719.477	715.17	710.839	706.489	702.117
x1 = 0.401	749.067	744.783	740.484	736.173	731.847	727.504	723.139	718.756
x1 = 0.4497	757.546	753.244	748.933	744.614	740.28	735.927	731.554	727.16
x1 = 0.5597	777.524	773.195	768.854	764.509	760.149	755.773	751.384	746.981
x1 = 0.6001	785.155	780.814	776.463	772.102	767.732	763.352	758.953	754.544
x1 = 0.6498	794.839	790.479	786.113	781.744	777.362	772.968	768.563	764.139
x1 = 0.6994	804.717	800.344	795.962	791.575	787.181	782.776	778.36	773.935
x1 = 0.7999	825.611	821.199	816.783	812.36	807.934	803.499	799.055	794.605
x1 = 0.8992	847.523	843.061	838.598	834.132	829.662	825.189	820.71	816.229
x1 = 1	871.29	866.747	862.207	857.671	853.138	848.607	844.073	839.547
